# Test results: ChEMBL document CHEMBL1201861, “Genomics of Drug Sensitity in Cancer screening data, Wellcome Trust Sanger Institute”
# Experiments:
# Test in all cases: cells
# NCI-H82 = assay type: functional, cell-based, Homo sapiens; conditions: Homo sapiens, NCI-H82;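 further: growth inhibition of NCI-H82 cells, measured with a cell viability readout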
# Description: SANGER: Inhibition of human NCI-H82 cell growth in a cell viability assay.
# TE-1 = assay type: functional, cell-based, Homo sapiens; conditions: Homo sapiens, TE-1;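 further: growth inhibition of the human TE-1 cell line, read out with a cell viability assay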
# Description: SANGER: Inhibition of human TE-1 cell growth in a cell viability assay.
# no-10 = assay type: functional, cell-based, Homo sapiens; conditions: Homo sapiens;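 further: growth inhibition of no-10 cells, read out with a cell viability assay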
# Description: SANGER: Inhibition of human no-10 cell growth in a cell viability assay.
# NCI-H1650 = assay type: functional, cell-based, Homo sapiens; conditions: Homo sapiens, NCI-H1650;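 further: growth inhibition of human NCI-H1650 cells measured by a cell viability assay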
# Description: SANGER: Inhibition of human NCI-H1650 cell growth in a cell viability assay.
# L-428 = assay type: functional, cell-based, Homo sapiens; conditions: Homo sapiens, L-428
# Description: SANGER: Inhibition of human L-428 cell growth in a cell viability assay.
# GR-ST = assay type: functional, cell-based, Homo sapiens; conditions: Homo sapiens, GR-ST
# Description: SANGER: Inhibition of human GR-ST cell growth in a cell viability assay.
# SK-MEL-2 = assay type: functional, cell-based, Homo sapiens; conditions: Homo sapiens, SK-MEL-2;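 further: growth inhibition of human SK-MEL-2 cells measured with a cell viability assay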
# Description: SANGER: Inhibition of human SK-MEL-2 cell growth in a cell viability assay.
# SF-539 = assay type: functional, cell-based, Homo sapiens; conditions: Homo sapiens, SF-539;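 further: Read-out is a cell viability assay, with IC50 reflecting inhibition of cell growth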
# Description: SANGER: Inhibition of human SF539 cell growth in a cell viability assay.
# EW-13 = assay type: functional, cell-based, Homo sapiens; conditions: Homo sapiens, EW-13;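 further: growth inhibition of EW-13 cells, read out with a cell viability assay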
# Description: SANGER: Inhibition of human EW-13 cell growth in a cell viability assay.
# NCI-H510A = assay type: functional, cell-based, Homo sapiens; conditions: Homo sapiens, NCI-H510A;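 further: growth inhibition of NCI-H510A cells, read out with a cell viability assay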
# Description: SANGER: Inhibition of human NCI-H510A cell growth in a cell viability assay.
# QIMR-WIL = assay type: functional, cell-based, Homo sapiens; conditions: Homo sapiens, QIMR-WIL;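 further: growth inhibition of QIMR-WIL cells, read out with a cell viability assay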
# Description: SANGER: Inhibition of human QIMR-WIL cell growth in a cell viability assay.
# SK-NEP-1 = assay type: functional, cell-based, Homo sapiens; conditions: Homo sapiens, SK-NEP-1;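 further: growth inhibition of human SK-NEP-1 cells, read out by a cell viability assay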
# Description: SANGER: Inhibition of human SK-NEP-1 cell growth in a cell viability assay.
# Lu-65 = assay type: functional, cell-based, Homo sapiens; conditions: Homo sapiens, Lu-65;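 further: growth inhibition of Lu-65 cancer cells, read out by a cell viability assay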
# Description: SANGER: Inhibition of human LU-65 cell growth in a cell viability assay.
# CW-2 = assay type: functional, cell-based, Homo sapiens; conditions: Homo sapiens, CW-2;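 further: growth inhibition of CW-2 cells, read out by a cell viability assay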
# Description: SANGER: Inhibition of human CW-2 cell growth in a cell viability assay.
# IA-LM = assay type: functional, cell-based, Homo sapiens; conditions: Homo sapiens, IA-LM;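 further: cell viability assay measuring growth inhibition of human IA-LM cells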
# Description: SANGER: Inhibition of human IA-LM cell growth in a cell viability assay.
# KARPAS-45 = assay type: functional, cell-based, Homo sapiens; conditions: Homo sapiens, KARPAS-45;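 further: inhibition of cell line growth, read out through a viability assay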
# Description: SANGER: Inhibition of human KARPAS-45 cell growth in a cell viability assay.
# GCIY = assay type: functional, cell-based, Homo sapiens; conditions: Homo sapiens, GCIY;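 further: growth inhibition of the human GCIY cell line, read out by a cell viability assay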
# Description: SANGER: Inhibition of human GCIY cell growth in a cell viability assay.
# DSH1 = assay type: functional, cell-based, Homo sapiens; conditions: Homo sapiens, DSH1;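 further: growth inhibition of human DSH1 cells, measured with a cell viability readout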
# Description: SANGER: Inhibition of human DSH1 cell growth in a cell viability assay.
# DMS-114 = assay type: functional, cell-based, Homo sapiens; conditions: Homo sapiens, DMS-114
# MLMA = assay type: functional, cell-based, Homo sapiens; conditions: Homo sapiens, MLMA;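 further: growth inhibition of MLMA cells (human), determined through a cell viability readout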
# Description: SANGER: Inhibition of human MLMA cell growth in a cell viability assay.
# NH-12 = assay type: functional, cell-based, Homo sapiens; conditions: Homo sapiens, NH-12;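 further: growth inhibition of NH-12 cells, read out with a cell viability assay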
# Description: SANGER: Inhibition of human NH-12 cell growth in a cell viability assay.
# GB-1 = assay type: functional, cell-based, Homo sapiens; conditions: Homo sapiens, GB-1;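 further: growth of GB-1 cells judged by a viability assay, IC50 marks the concentration inhibiting growth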
# Description: SANGER: Inhibition of human GB-1 cell growth in a cell viability assay.
# LOX IMVI = assay type: functional, cell-based, Homo sapiens; conditions: Homo sapiens, LOX IMVI
# Description: SANGER: Inhibition of human LOXIMVI cell growth in a cell viability assay.
# SHP77 = assay type: functional, cell-based, Homo sapiens, SHP-77; conditions: Homo sapiens, SHP77;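 further: growth inhibition of human SHP-77 cells measured by a cell viability assay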
# Description: SANGER: Inhibition of human SHP-77 cell growth in a cell viability assay.
# MZ1-PC = assay type: functional, cell-based, Homo sapiens; conditions: Homo sapiens, MZ1-PC;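 further: cell viability assay measuring growth inhibition of human MZ1-PC cells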
# Description: SANGER: Inhibition of human MZ1-PC cell growth in a cell viability assay.
# OCI-AML2 = assay type: functional, cell-based, Homo sapiens; conditions: Homo sapiens, OCI-AML2;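 further: growth inhibition of OCI-AML2 cells, read out with a cell viability assay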
# Description: SANGER: Inhibition of human OCI-AML2 cell growth in a cell viability assay.
# DEL = assay type: functional, cell-based, Homo sapiens; conditions: Homo sapiens, DEL;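 further: growth inhibition of the human DEL cell line, read out with a cell viability assay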
# Description: SANGER: Inhibition of human DEL cell growth in a cell viability assay.
# U-266 = assay type: functional, cell-based, Homo sapiens; conditions: Homo sapiens, U-266
# Description: SANGER: Inhibition of human U-266 cell growth in a cell viability assay.
# KINGS-1 = assay type: functional, cell-based, Homo sapiens; conditions: Homo sapiens, KINGS-1;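 further: cell viability assay measuring suppression of KINGS-1 cell growth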
# Description: SANGER: Inhibition of human KINGS-1 cell growth in a cell viability assay.
# DU-4475 = assay type: functional, cell-based, Homo sapiens; conditions: Homo sapiens, DU-4475
# Description: SANGER: Inhibition of human DU-4475 cell growth in a cell viability assay.
# HCE-T = assay type: functional, cell-based, Homo sapiens; conditions: Homo sapiens, HCE-T;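 further: cell viability assay read-out, reporting inhibition of HCE-T cell growth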
# Description: SANGER: Inhibition of human HCE-T cell growth in a cell viability assay.
# MN-60 = assay type: functional, cell-based, Homo sapiens; conditions: Homo sapiens, MN-60;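 further: growth inhibition of the MN-60 cell line, determined with a cell viability assay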
# Description: SANGER: Inhibition of human MN-60 cell growth in a cell viability assay.
# TGBC1TKB = assay type: functional, cell-based, Homo sapiens; conditions: Homo sapiens, TGBC1TKB;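 further: growth inhibition of TGBC1TKB cells, read out by a cell viability assay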
# Description: SANGER: Inhibition of human TGBC1TKB cell growth in a cell viability assay.
# A498 = assay type: functional, cell-based, Homo sapiens; conditions: Homo sapiens, A498;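 further: growth inhibition of human A498 cells, read out with a cell viability assay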
# Description: SANGER: Inhibition of human A498 cell growth in a cell viability assay.
# GI-1 = assay type: functional, cell-based, Homo sapiens; conditions: Homo sapiens, GI-1;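 further: growth inhibition of human GI-1 cells, measured with a cell viability readout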
# Description: SANGER: Inhibition of human GI-1 cell growth in a cell viability assay.
# KP-N-YS = assay type: functional, cell-based, Homo sapiens; conditions: Homo sapiens, KP-N-YS;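 further: cell viability assay measuring inhibition of cell line growth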
# Description: SANGER: Inhibition of human KP-N-YS cell growth in a cell viability assay.
# Ramos-2G6-4C10 = assay type: functional, cell-based, Homo sapiens; conditions: Homo sapiens, Ramos-2G6-4C10;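 further: growth inhibition of the cell line, measured by a cell viability read-out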
# Description: SANGER: Inhibition of human Ramos-2G6-4C10 cell growth in a cell viability assay.
# GOTO = assay type: functional, cell-based, Homo sapiens; conditions: Homo sapiens, GOTO;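 further: growth inhibition of GOTO cells, read out by a cell viability assay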
# Description: SANGER: Inhibition of human GOTO cell growth in a cell viability assay.
# NB13 = assay type: functional, cell-based, Homo sapiens; conditions: Homo sapiens, NB13;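 further: cell viability readout measuring growth inhibition of human NB13 cells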
# Description: SANGER: Inhibition of human NB13 cell growth in a cell viability assay.
# EW-1 = assay type: functional, cell-based, Homo sapiens; conditions: Homo sapiens, EW-1
# Description: SANGER: Inhibition of human EW-1 cell growth in a cell viability assay.
# NCI-H209 = assay type: functional, cell-based, Homo sapiens; conditions: Homo sapiens, NCI-H209;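 further: growth inhibition of human NCI-H209 cells, measured by a cell viability assay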
# Description: SANGER: Inhibition of human NCI-H209 cell growth in a cell viability assay.
# BB30-HNC = assay type: functional, cell-based, Homo sapiens; conditions: Homo sapiens, BB30-HNC;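 further: growth inhibition of the cultured cell line, read out by a cell viability assay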
# Description: SANGER: Inhibition of human BB30-HNC cell growth in a cell viability assay.
# SBC-1 = assay type: functional, cell-based, Homo sapiens; conditions: Homo sapiens, SBC-1;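 further: cell viability assay measuring growth inhibition of the SBC-1 cell line, IC50 being the concentration that halves growth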
# Description: SANGER: Inhibition of human SBC-1 cell growth in a cell viability assay.
# UACC-257 = assay type: functional, cell-based, Homo sapiens; conditions: Homo sapiens, UACC-257
# Description: SANGER: Inhibition of human UACC-257 cell growth in a cell viability assay.
# OVCAR-4 = assay type: functional, cell-based, Homo sapiens; conditions: Homo sapiens, OVCAR-4;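 further: growth inhibition of human OVCAR-4 cells, measured with a cell viability assay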
# Description: SANGER: Inhibition of human OVCAR-4 cell growth in a cell viability assay.
# A3-KAW = assay type: functional, cell-based, Homo sapiens; conditions: Homo sapiens, A3-KAW;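 further: growth inhibition of human A3-KAW cells, read out with a cell viability assay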
# Description: SANGER: Inhibition of human A3-KAW cell growth in a cell viability assay.
# LAMA-84 = assay type: functional, cell-based, Homo sapiens; conditions: Homo sapiens, LAMA-84;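 further: growth inhibition of LAMA-84 cells, read out with a cell viability assay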
# Description: SANGER: Inhibition of human LAMA-84 cell growth in a cell viability assay.
# KG-1 = assay type: functional, cell-based, Homo sapiens; conditions: Homo sapiens, KG-1;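 further: growth inhibition of KG-1 cells, read out by a cell viability assay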
# Description: SANGER: Inhibition of human KG-1 cell growth in a cell viability assay.
smiles,measurement,setting,value
COc1cc2ncn(-c3cc(OCc4ccccc4C(F)(F)F)c(C(N)=O)s3)c2cc1OC [GW843682X],IC50,NCI-H82,0.0152 µM
same,IC50,TE-1,0.0143 µM
same,IC50,no-10,0.0207 µM
same,IC50,NCI-H1650,> 0.256 µM
same,IC50,L-428,0.11 µM
same,IC50,GR-ST,0.084 µM
same,IC50,SK-MEL-2,> 0.256 µM
same,IC50,SF-539,> 0.256 µM
same,IC50,EW-13,> 0.256 µM
same,IC50,NCI-H510A,0.0166 µM
same,IC50,QIMR-WIL,0.0423 µM
same,IC50,SK-NEP-1,0.0165 µM
same,IC50,Lu-65,> 0.256 µM
same,IC50,CW-2,> 0.256 µM
same,IC50,IA-LM,0.0112 µM
same,IC50,KARPAS-45,0.00613 µM
same,IC50,GCIY,0.048 µM
same,IC50,DSH1,> 0.256 µM
same,IC50,DMS-114,0.122 µM
same,IC50,MLMA,0.0249 µM
same,IC50,NH-12,> 0.256 µM
same,IC50,GB-1,0.0275 µM
same,IC50,LOX IMVI,0.125 µM
same,IC50,SHP77,0.0573 µM
same,IC50,MZ1-PC,0.0222 µM
same,IC50,OCI-AML2,0.0499 µM
same,IC50,DEL,0.0199 µM
same,IC50,U-266,0.0698 µM
same,IC50,KINGS-1,0.149 µM
same,IC50,DU-4475,0.08 µM
same,IC50,HCE-T,0.217 µM
same,IC50,MN-60,> 0.256 µM
same,IC50,TGBC1TKB,0.0336 µM
same,IC50,A498,> 0.256 µM
same,IC50,GI-1,0.0073 µM
same,IC50,KP-N-YS,0.0272 µM
same,IC50,Ramos-2G6-4C10,0.0374 µM
same,IC50,GOTO,> 0.256 µM
same,IC50,NB13,0.022 µM
same,IC50,EW-1,0.0168 µM
same,IC50,NCI-H209,0.225 µM
same,IC50,BB30-HNC,0.0341 µM
same,IC50,SBC-1,> 0.256 µM
same,IC50,UACC-257,0.13 µM
same,IC50,OVCAR-4,0.0715 µM
same,IC50,A3-KAW,0.0517 µM
same,IC50,LAMA-84,0.0399 µM
same,IC50,KG-1,> 0.256 µM
N[C@@H](CSC(c1ccccc1)(c1ccccc1)c1ccccc1)C(=O)O [S-TRITYL-L-CYSTEINE],IC50,NCI-H82,1.2 µM
same,IC50,TE-1,3.6 µM
same,IC50,no-10,1.96 µM
same,IC50,NCI-H1650,> 5.12 µM
same,IC50,L-428,3.21 µM
same,IC50,GR-ST,2.97 µM
same,IC50,SK-MEL-2,> 5.12 µM
same,IC50,SF-539,2.06 µM
same,IC50,EW-13,> 5.12 µM
same,IC50,NCI-H510A,1.38 µM
same,IC50,QIMR-WIL,> 5.12 µM
same,IC50,SK-NEP-1,1.86 µM
same,IC50,Lu-65,> 5.12 µM
same,IC50,CW-2,> 5.12 µM
same,IC50,IA-LM,1.39 µM
same,IC50,KARPAS-45,1.69 µM
same,IC50,GCIY,1.82 µM
same,IC50,DSH1,> 5.12 µM
same,IC50,DMS-114,3.26 µM
same,IC50,MLMA,4.62 µM
same,IC50,NH-12,> 5.12 µM
same,IC50,GB-1,> 5.12 µM
same,IC50,LOX IMVI,> 5.12 µM
same,IC50,SHP77,> 5.12 µM
same,IC50,MZ1-PC,1.63 µM
same,IC50,OCI-AML2,4.22 µM
same,IC50,DEL,1.41 µM
same,IC50,U-266,4.8 µM
same,IC50,KINGS-1,2.16 µM
same,IC50,DU-4475,1.51 µM
same,IC50,HCE-T,2.79 µM
same,IC50,MN-60,> 5.12 µM
same,IC50,TGBC1TKB,2.42 µM
same,IC50,A498,> 5.12 µM
same,IC50,GI-1,> 5.12 µM
same,IC50,KP-N-YS,> 5.12 µM
same,IC50,Ramos-2G6-4C10,1.55 µM
same,IC50,GOTO,> 5.12 µM
same,IC50,NB13,1.99 µM
same,IC50,EW-1,1.51 µM
same,IC50,NCI-H209,4.75 µM
same,IC50,BB30-HNC,1.19 µM
same,IC50,SBC-1,> 5.12 µM
same,IC50,UACC-257,> 5.12 µM
same,IC50,OVCAR-4,3.8 µM
same,IC50,A3-KAW,0.835 µM
same,IC50,LAMA-84,3.16 µM
same,IC50,KG-1,> 5.12 µM
CCN(CC)CCNC(=O)c1c(C)[nH]c(/C=C2\C(=O)Nc3ccc(F)cc32)c1C [SUNITINIB],IC50,NCI-H82,7.38 µM
same,IC50,TE-1,> 8 µM
same,IC50,no-10,> 8 µM
same,IC50,NCI-H1650,> 8 µM
same,IC50,L-428,> 8 µM
same,IC50,GR-ST,> 8 µM
same,IC50,SK-MEL-2,> 8 µM
same,IC50,SF-539,> 8 µM
same,IC50,EW-13,> 8 µM
same,IC50,NCI-H510A,> 8 µM
same,IC50,QIMR-WIL,3.63 µM
same,IC50,SK-NEP-1,2.6 µM
same,IC50,Lu-65,> 8 µM
same,IC50,CW-2,> 8 µM
same,IC50,IA-LM,> 8 µM
same,IC50,KARPAS-45,2.49 µM
same,IC50,GCIY,> 8 µM
same,IC50,DSH1,> 8 µM
same,IC50,DMS-114,> 8 µM
same,IC50,MLMA,> 8 µM
same,IC50,NH-12,> 8 µM
same,IC50,GB-1,0.71 µM
same,IC50,LOX IMVI,> 8 µM
same,IC50,SHP77,> 8 µM
same,IC50,MZ1-PC,7.3 µM
same,IC50,OCI-AML2,1.37 µM
same,IC50,DEL,2.08 µM
same,IC50,U-266,> 8 µM
same,IC50,KINGS-1,> 8 µM
same,IC50,DU-4475,4.37 µM
same,IC50,HCE-T,> 8 µM
same,IC50,MN-60,7.54 µM
same,IC50,TGBC1TKB,> 8 µM
same,IC50,A498,> 8 µM
same,IC50,GI-1,> 8 µM
same,IC50,KP-N-YS,> 8 µM
same,IC50,Ramos-2G6-4C10,> 8 µM
same,IC50,GOTO,> 8 µM
same,IC50,NB13,> 8 µM
same,IC50,EW-1,4.68 µM
same,IC50,NCI-H209,> 8 µM
same,IC50,SBC-1,> 8 µM
same,IC50,UACC-257,> 8 µM
same,IC50,OVCAR-4,> 8 µM
same,IC50,A3-KAW,1.63 µM
same,IC50,LAMA-84,2.7 µM
same,IC50,KG-1,6.03 µM
